One series can be described thus: in vitro. Particulars: human, Viability (CelTiter Glow). As for the experimental part:
(§1) FIG. 1. High throughout screen (HTS) for identifying inhibitors of HPV infection. Shown is a schematic showing basic steps in the HTS. […] Briefly, HPV16 pseudoviruses containing the SEAP reporter genes are analyzed for their ability to infect as judged by the levels of secreted alkaline phosphatase in the tissue culture supernatant (light grey arrows). Cell viability was assessed in parallel on the same wells (dark grey arrows). In the specific HTS carried out in this study, the compounds were added at 3 uM/1% DMSO final concentration (black arrow) 4 hours prior to infection.
(§2) After incubation at 37° C. for 24 hrs, 35 μL of media was removed. […] Cells were incubated at 37° C. for 48 hrs. 2.5 μL of media was collected for SEAP assay using a PHOSPHA-LIGHT chemiluminescent alkaline phosphatase assay (Applied Biosystems). Cell viability was determined using the CellTiter Glo Luminescent Cell Viability Assay™ (Promega).

The next series has as its system HPV16 pseudoviruses. Nature of the series: microbe, parasite or virus in culture. Particulars: Human papillomavirus 16, HEK-293T, 48 h. It is filed as cell-based. On the procedure:
as §1, §2

[1] abbreviates: read-out: Infectivity (SEAP Activity), 3 μM HTS standard concentration, 293T cells, 48 hrs.
Where [2] appears, read: read-out: Infectivity vs. viability, 3 μM HTS standard concentration, ratio infectivity/viability.

SMILES strings stand for the structures. Where two headings read alike, the source gives them in different places.

The term viability denotes a read-out of living cells in per cent, often relative to untreated cells.

For `CSc1nsc(SC)c1NC(=O)OCC1([N+](=O)[O-])COC(C)(C)OC1` [Compound 5893711, (2,2-dimethyl-5-nitro-1,3-dioxan-5-yl)methyl [3,5-bis(methylthio)-4-isothiazolyl]carbamate], in the series “in vitro”, the viability at 52 h, 3 μM was 108%. Moreover, the activity at 3 µM in the series with HPV16 pseudoviruses (setting [1]) amounted to 63.3%; in the series on HPV16 pseudoviruses (setting [2]), 58.6%.
The corresponding values for `COn1c(=O)c(=O)n(OC)c2ccccc21` [Compound 5896361, 1,4-dimethoxy-1,4-dihydro-2,3-quinoxalinedione] are 102%, 60.8% and 59.3%.
On the same counts, the results for `CC(=O)SCCC(=O)N1CCn2c3c(c4cc(C)ccc42)CCCC31` (stereo not drawn) [Compound 5915049, S-[3-(8-methyl-1,2,3a,4,5,6-hexahydro-3H-pyrazino[3,2,1-jk]carbazol-3-yl)-3-oxopropyl] ethanethioate] are 102%, 56.8% and 55.9%.
On the same counts, the results for `CCCC(=O)NC(c1cccc([N+](=O)[O-])c1)c1ccc2cccnc2c1O` (stereo not drawn) [Compound 5926288, N-[(8-hydroxy-7-quinolinyl)(3-nitrophenyl)methyl]butanamide] are 63.3%, 1.52% and 2.4%.
For the compound `COc1ccc(C(NC(=O)Cc2ccccc2)c2ccc3cccnc3c2O)cc1` (stereo not drawn) [Compound 5929288, N-[(8-hydroxy-7-quinolinyl)(4-methoxyphenyl)methyl]-2-phenylacetamide], in “in vitro”, the viability at 52 h, 3 μM is 59.8%. Moreover, the activity at 3 µM with HPV16 pseudoviruses (setting [1]) was 1.44%; in the series on HPV16 pseudoviruses (setting [2]), 2.41%.
Take `COc1cc(NC(=O)C=Cc2ccc(OC)c(Br)c2)c(OC)cc1Cl` [Compound 5944623, 3-(3-bromo-4-methoxyphenyl)-N-(4-chloro-2,5-dimethoxyphenyl)acrylamide]: in the series “in vitro”, the viability at 52 h, 3 μM came to 98.5%. For the same compound, the activity at 3 µM was determined as 48.8% in the series on HPV16 pseudoviruses (setting [1]) and 49.5% in the series with HPV16 pseudoviruses (setting [2]).
On the same counts, the results for `Cc1ccc2nc3nc(C)cc(C)c3c(N)c2c1` [Compound 5947488, 2,4,7-trimethylbenzo[b]-1,8-naphthyridin-5-amine] are 68%, 34.6% and 51%.
For `Cc1ccc2cc(C3CC(c4ccc(Br)cc4)=NN3C(=O)CCC(=O)O)c(=O)[nH]c2c1` (stereo not drawn) [Compound 5976736, 4-[3-(4-bromophenyl)-5-(7-methyl-2-oxo-1,2-dihydro-3-quinolinyl)-4,5-dihydro-1H-pyrazol-1-yl]-4-oxobutanoic acid], the viability at 52 h, 3 μM in “in vitro” was 105%. Besides, the activity at 3 µM amounted to 42.2% with HPV16 pseudoviruses (setting [1]) and 40.2% in the series with HPV16 pseudoviruses (setting [2]).
As to `Cc1ccc(CN2CCN(S(C)(=O)=O)CC2)cc1` [Compound 5994189, 1-(4-methylbenzyl)-4-(methylsulfonyl)piperazine], in the series “in vitro”, the viability at 52 h, 3 μM came to 109%. The activity at 3 µM in the series on HPV16 pseudoviruses (setting [1]) was 39.8%; with HPV16 pseudoviruses (setting [2]), 36.5%.
The corresponding values for `Cc1nc2ccccc2c(=O)n1N=Cc1c(O)ccc2ccccc12` [Compound 6001901, 3-{[(2-hydroxy-1-naphthyl)methylene]amino}-2-methyl-4(3H)-quinazolinone] are 110%, 65.8% and 60%.
The corresponding values for `Cc1cc(OCC(=O)Nc2ccc(N3CCOCC3)c(Cl)c2)cc(C)c1Cl` [Compound 6013775, 2-(4-chloro-3,5-dimethylphenoxy)-N-[3-chloro-4-(4-morpholinyl)phenyl]acetamide] are 105%, 58.8% and 56%.
The corresponding values for `Cc1cc(Cl)ccc1OCC(=O)Nc1ccc(Br)c(NC(=O)c2ccccc2)c1` [Compound 6016344, N-(2-bromo-5-{[(4-chloro-2-methylphenoxy)acetyl]amino}phenyl)benzamide] are 94.6%, 51.4% and 54.4%.
Consider `CCOc1ccc(C(=O)Nc2ccc3oc(-c4ccccc4F)nc3c2)cc1Cl` [Compound 6021315, 3-chloro-4-ethoxy-N-[2-(2-fluorophenyl)-1,3-benzoxazol-5-yl]benzamide], for which the viability at 52 h, 3 μM in the series “in vitro” was found to be 96.3%. For the same compound, the results for the activity at 3 µM in the series with HPV16 pseudoviruses (setting [1]) and with HPV16 pseudoviruses (setting [2]) were 47% and 48.8%, respectively.
On to `Cc1ccccc1C(=O)Nc1cccc(NC(=O)c2ccc(-c3ccc(Br)cc3)o2)c1` [Compound 6021688, 5-(4-bromophenyl)-N-{3-[(2-methylbenzoyl)amino]phenyl}-2-furamide], for which, in “in vitro”, the viability at 52 h, 3 μM was found to be 104%. Further, the activity at 3 µM with HPV16 pseudoviruses (setting [1]) came to 40.2%; in the series with HPV16 pseudoviruses (setting [2]), 38.7%.
On the same counts, the results for `O=[N+]([O-])c1cc(-n2ncnc2-c2ccc3c(c2)OCO3)ccc1F` [Compound 6033199, 5-(1,3-benzodioxol-5-yl)-1-(4-fluoro-3-nitrophenyl)-1H-1,2,4-triazole] are 106%, 50.6% and 47.9%.
The corresponding values for `CC(c1ccccc1)c1nnc(NC(=O)Nc2ccc(Cl)cc2)s1` (stereo not drawn) [Compound 6040256, N-(4-chlorophenyl)-N′-[5-(1-phenylethyl)-1,3,4-thiadiazol-2-yl]urea] are 97.5%, 29.6% and 30.4%.
For the compound `O=C(Nc1ccccc1C(=O)N[C@@H](Cc1ccccc1)C(=O)O)c1ccccc1` [Compound 6058136, N-[2-(benzoylamino)benzoyl]phenylalanine], in “in vitro”, the viability at 52 h, 3 μM is 109%. Moreover, the activity at 3 µM came to 64.7% in the series with HPV16 pseudoviruses (setting [1]) and 59.1% in the series with HPV16 pseudoviruses (setting [2]).
On the same counts, the results for `CCCCNC(=O)c1cc2nc(-c3ccc(OCC)cc3)cc(C)n2n1` [Compound 6070486, N-butyl-5-(4-ethoxyphenyl)-7-methylpyrazolo[1,5-a]pyrimidine-2-carboxamide] are 113%, 54.6% and 48.3%.
The corresponding values for `Cc1ccc(OCc2nnc(NC(=O)Nc3ccc(Cl)c(Cl)c3)s2)cc1` [Compound 6070527, N-(3,4-dichlorophenyl)-N′-{5-[(4-methylphenoxy)methyl]-1,3,4-thiadiazol-2-yl}urea] are 105%, 41.8% and 39.8%.
On the same counts, the results for `O=C(Nc1ccccc1)Nc1nnc(COc2ccc(Cl)cc2)s1` [Compound 6072068, N-{5-[(4-chlorophenoxy)methyl]-1,3,4-thiadiazol-2-yl}-N′-phenylurea] are 112%, 54.5% and 48.8%.
For the compound `Cc1ccc(-c2cc(N)n(Cc3ccc(Cl)cc3)n2)cc1` [Compound 6077076, 1-(4-chlorobenzyl)-3-(4-methylphenyl)-1H-pyrazol-5-amine], in the series “in vitro”, the viability at 52 h, 3 μM is 74.4%. For the same compound, the activity at 3 µM is 20.9% in the series with HPV16 pseudoviruses (setting [1]) and 28.1% in the series with HPV16 pseudoviruses (setting [2]).
Take `COc1ccccc1CC(N)=NOC(=O)COc1ccc(C)cc1` [Compound 6084167, 2-(2-methoxyphenyl)-N′-{[(4-methylphenoxy)acetyl]oxy}ethanimidamide]: the viability at 52 h, 3 μM in “in vitro” came to 114%. The activity at 3 µM stood at 53.8% in the series with HPV16 pseudoviruses (setting [1]) and 47.2% with HPV16 pseudoviruses (setting [2]).
`O=c1oc2c3c4c(cc2cc1CCO)CCCN4CCC3` [Compound 6105180, 10-(2-hydroxyethyl)-2,3,6,7-tetrahydro-1H,5H,11H-pyrano[2,3-f]pyrido[3,2,1-ij]quinolin-11-one]: in “in vitro”, the viability at 52 h, 3 μM came to 115%. Moreover, the activity at 3 µM in the series with HPV16 pseudoviruses (setting [1]) was determined as 56.9%; with HPV16 pseudoviruses (setting [2]), 49.5%.
On to `CN(C)c1cccc(C(=O)NCc2ccc(S(N)(=O)=O)cc2)c1` [Compound 6106063, N-[4-(aminosulfonyl)benzyl]-3-(dimethylamino)benzamide], for which the viability at 52 h, 3 μM in the series “in vitro” worked out at 105%. Further, the results for the activity at 3 µM in the series with HPV16 pseudoviruses (setting [1]) and in the series with HPV16 pseudoviruses (setting [2]) were 45.6% and 43.4%, respectively.
The corresponding values for `Cc1c(NS(=O)(=O)c2cc(Cl)ccc2Cl)cccc1[N+](=O)[O-]` [Compound 6107659, 2,5-dichloro-N-(2-methyl-3-nitrophenyl)benzenesulfonamide] are 67.8%, 22.3% and 32.9%.
On the same counts, the results for `CCOc1cccc(C(=O)Nc2ccc(NC(=O)c3ccco3)c(OC)c2)c1` [Compound 6113089, N-{4-[(3-ethoxybenzoyl)amino]-2-methoxyphenyl}-2-furamide] are 103%, 54.6% and 52.9%.
The corresponding values for `COc1cc(NC(=O)COc2ccccc2C)ccc1NC(=O)c1ccco1` [Compound 6113090, N-(2-methoxy-4-{[(2-methylphenoxy)acetyl]amino}phenyl)-2-furamide] are 106%, 55% and 51.9%.
On to `COc1ccc(S(=O)(=O)Nc2cc(Cl)ccc2C)cc1` [Compound 6118535, N-(5-chloro-2-methylphenyl)-4-methoxybenzenesulfonamide], for which, in the series “in vitro”, the viability at 52 h, 3 μM was determined as 73.9%. For the same compound, the activity at 3 µM in the series on HPV16 pseudoviruses (setting [1]) came out at 39%; in the series with HPV16 pseudoviruses (setting [2]), 52.8%.

(Values after patent US9949980B2, “Drugs to prevent HPV infection” (Wisconsin Alumni Research Foundation, priority 2008, dated 2018).)
